We go through 14 compounds from patent US20240208992A1, “MACROCYCLES AS CFTR MODULATORS” (Idorsia Pharmaceuticals Ltd, priority 2021, published 2024).

In this experiment the target is human F508del-CFTR (Homo sapiens, UniProt P13569, DEL508-508). Put plainly: F508del-CFTR cell surface expression (corrector activity), DiscoveRx ß-galactosidase complementation chemiluminescence assay in recombinant U2OS cell line.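 For all read-outs here: U2OS cells co-expressing ProLink-tagged F508del-CFTR and a membrane-anchored enzyme acceptor, where more surface CFTR restores β-galactosidase activity measured by chemiluminescence.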 As to conditions: for EC50: EC50, F508del-CFTR cell surface expression, U2OS cells, 16h compound incubation, geomean values; for Emax: U2OS, in relation to Emax of corrector lumacaftor (=100%), arithmetic mean values.
Chain of human F508del-CFTR (P13569 with tags, fused parts or gaps DEL508-508): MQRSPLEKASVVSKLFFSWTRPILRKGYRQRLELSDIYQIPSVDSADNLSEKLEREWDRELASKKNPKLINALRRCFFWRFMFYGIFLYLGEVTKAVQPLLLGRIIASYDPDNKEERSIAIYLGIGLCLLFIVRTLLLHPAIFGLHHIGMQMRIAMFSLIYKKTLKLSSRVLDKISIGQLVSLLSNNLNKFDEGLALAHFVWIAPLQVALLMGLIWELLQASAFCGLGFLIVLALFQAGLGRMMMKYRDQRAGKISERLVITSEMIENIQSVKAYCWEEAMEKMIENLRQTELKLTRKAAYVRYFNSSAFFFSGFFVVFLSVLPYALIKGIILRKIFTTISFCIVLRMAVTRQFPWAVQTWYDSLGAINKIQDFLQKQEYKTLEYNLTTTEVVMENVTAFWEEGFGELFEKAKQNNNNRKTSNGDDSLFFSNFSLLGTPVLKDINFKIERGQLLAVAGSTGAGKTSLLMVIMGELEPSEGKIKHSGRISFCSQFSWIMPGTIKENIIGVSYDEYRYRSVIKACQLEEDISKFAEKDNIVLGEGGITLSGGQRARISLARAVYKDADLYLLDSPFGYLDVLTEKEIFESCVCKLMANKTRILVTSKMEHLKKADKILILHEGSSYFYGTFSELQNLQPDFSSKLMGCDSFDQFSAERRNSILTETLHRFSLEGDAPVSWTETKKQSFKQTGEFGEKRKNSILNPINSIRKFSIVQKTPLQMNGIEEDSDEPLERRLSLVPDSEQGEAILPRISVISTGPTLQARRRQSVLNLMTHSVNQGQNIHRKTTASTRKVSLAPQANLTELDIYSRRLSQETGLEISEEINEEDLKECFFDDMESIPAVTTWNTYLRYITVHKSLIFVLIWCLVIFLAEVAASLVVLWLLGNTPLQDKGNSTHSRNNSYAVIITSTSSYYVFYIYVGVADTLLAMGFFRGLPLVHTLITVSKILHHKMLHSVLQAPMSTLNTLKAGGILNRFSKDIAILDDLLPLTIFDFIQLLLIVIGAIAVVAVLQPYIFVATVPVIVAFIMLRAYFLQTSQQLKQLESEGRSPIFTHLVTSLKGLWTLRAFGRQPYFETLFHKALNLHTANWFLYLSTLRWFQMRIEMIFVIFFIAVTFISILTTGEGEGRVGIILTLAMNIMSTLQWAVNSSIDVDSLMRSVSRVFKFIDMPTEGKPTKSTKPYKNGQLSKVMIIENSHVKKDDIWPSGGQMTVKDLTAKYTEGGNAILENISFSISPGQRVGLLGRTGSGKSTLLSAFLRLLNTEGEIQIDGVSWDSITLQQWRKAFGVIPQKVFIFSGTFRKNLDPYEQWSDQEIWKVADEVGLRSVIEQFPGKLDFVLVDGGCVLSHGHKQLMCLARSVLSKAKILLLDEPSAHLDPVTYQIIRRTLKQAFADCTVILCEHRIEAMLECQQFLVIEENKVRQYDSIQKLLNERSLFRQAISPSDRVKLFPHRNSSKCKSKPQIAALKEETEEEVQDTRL

SMILES strings stand for the structures.

The EC50 is the midpoint of the concentration-response curve. The term Emax denotes the size of the effect at its maximum, as opposed to the concentration needed.

Regarding `CC(C)C[C@H]1C(=O)N2CCCC[C@@H]2C(=O)N[C@H](Cc2ccccc2)COc2cnc3ccc(F)cc3c2C(=O)N[C@H](C(=O)NCCc2cc(C3CC3)no2)CC(=O)N1C` [Example 640, (9S,13S,19aR,22R)-22-benzyl-N-(2-(3-cyclopropylisoxazol-5-yl)ethyl)-5-fluoro-13-isobutyl-12-methyl-7,11,14,20-tetraoxo-7,8,9,10,11,12,13,14,17,18,19,19a,20,21,22,23-hexadecahydro-16H-pyrido[2′,11:6,7][1]oxa[4,7,10,14]tetraazacycloheptadecino[17,16-c]quinoline-9-carboxamide], the EC50 was 132 nM and the Emax is 339%.

In the case of `CC(C)C[C@H]1C(=O)N2CCCC[C@@H]2C(=O)N[C@H](Cc2ccccc2)COc2cnc3ccc(F)cc3c2C(=O)N[C@H](C(=O)NCCc2nc(C3CC3)no2)CC(=O)N1C` [Example 641, (9S,13S,19aR,22R)-22-benzyl-N-(2-(3-cyclopropyl-1,2,4-oxadiazol-5-yl)ethyl)-5-fluoro-13-isobutyl-12-methyl-7,11,14,20-tetraoxo-7,8,9,10,11,12,13,14,17,18,19,19a,20,21,22,23-hexadecahydro-16H-pyrido[2′,1′:6,7][1]oxa[4,7,10,14]tetraazacycloheptadecino[17,16-c]quinoline-9-carboxamide], the EC50 was determined as 87 nM and the Emax turned out to be 305%.

On to `CC(C)C[C@H]1C(=O)N2CCCC[C@@H]2C(=O)N[C@H](Cc2ccccc2)COc2cnc3ccccc3c2C(=O)N[C@H](C(=O)NCCc2cc(C3CC3)no2)CC(=O)N1C` [Example 642, (9S,13S,19aR,22R)-22-benzyl-N-(2-(3-cyclopropylisoxazol-5-yl)ethyl)-13-isobutyl-12-methyl-7,11,14,20-tetraoxo-7,8,9,10,11,12,13,14,17,18,19,19a,20,21,22,23-hexadecahydro-16H-pyrido[2′,1′:6,7][1]oxa[4,7,10,14]tetraazacycloheptadecino[17,16-c]quinoline-9-carboxamide], for which the EC50 amounted to 168 nM and the Emax amounted to 366%.

Take `CC(C)C[C@H]1C(=O)N2CCOC[C@@H]2C(=O)N[C@H](Cc2ccccc2)COc2cnc3ccc(F)cc3c2C(=O)N[C@H](C(=O)NCCc2cc(C3CC3)on2)CC(=O)N1C` [Example 643, (9S,13S,19aR,22R)-22-benzyl-N-(2-(5-cyclopropylisoxazol-3-yl)ethyl)-5-fluoro-13-isobutyl-12-methyl-7,11,14,20-tetraoxo-7,8,9,10,11,12,13,14,16,17,19,19a,20,21,22,23-hexadecahydro-[1,4]oxazino[3′,4′:6,7][1]oxa[4,7,10,14]tetraazacycloheptadecino[17,16-c]quinoline-9-carboxamide]: the EC50 stood at 220 nM and the maximal effect (Emax) worked out at 270%.

In the case of `CC(C)C[C@H]1C(=O)N2CCOC[C@@H]2C(=O)N[C@H](Cc2ccccc2)COc2cnc3ccc(F)cc3c2C(=O)N[C@H](C(=O)NCCc2cc(C3CC3)no2)CC(=O)N1C` [Example 644, (9S,13S,19aR,22R)-22-benzyl-N-(2-(3-cyclopropylisoxazol-5-yl)ethyl)-5-fluoro-13-isobutyl-12-methyl-7,11,14,20-tetraoxo-7,8,9,10,11,12,13,14,16,17,19,19a,20,21,22,23-hexadecahydro-[1,4]oxazino[3′,4′:6,7][1]oxa[4,7,10,14]tetraazacycloheptadecino[17,16-c]quinoline-9-carboxamide], the EC50 came to 277 nM and the Emax was found to be 270%.

As to `CC(C)C[C@H]1C(=O)N2CCOC[C@@H]2C(=O)N[C@H](Cc2ccccc2)COc2cnc3ccc(F)cc3c2C(=O)N[C@H](C(=O)NCCc2nc(C3CC3)no2)CC(=O)N1C` [Example 645, (9S,13S,19aR,22R)-22-benzyl-N-(2-(3-cyclopropyl-1,2,4-oxadiazol-5-yl)ethyl)-5-fluoro-13-isobutyl-12-methyl-7,11,14,20-tetraoxo-7,8,9,10,11,12,13,14,16,17,19,19a,20,21,22,23-hexadecahydro-[1,4]oxazino[3′,4′:6,7][1]oxa[4,7,10,14]tetraazacycloheptadecino[17,16-c]quinoline-9-carboxamide], the concentration giving a half-maximal response (EC50) is 289 nM and the Emax came out at 211%.

With `CCN1C(=O)C[C@@H](C(=O)NCCc2nc(C3CC3)no2)NC(=O)c2c(cnc3ccccc23)OC[C@@H](Cc2ccccc2)NC(=O)[C@H]2CCCCN2C(=O)[C@@H]1CC(C)C` [Example 646, (9S,13S,19aR,22R)-22-benzyl-N-(2-(3-cyclopropyl-1,2,4-oxadiazol-5-yl)ethyl)-12-ethyl-13-isobutyl-7,11,14,20-tetraoxo-7,8,9,10,11,12,13,14,17,18,19,19a,20,21,22,23-hexadecahydro-16H-pyrido[2′,1′:6,7][1]oxa[4,7,10,14]tetraazacycloheptadecino[17,16-c]quinoline-9-carboxamide], the EC50 came out at 158 nM and the Emax is 201%.

Regarding `COc1cccc(CCNC(=O)[C@@H]2CC(=O)N(C)[C@@H](CC(C)C)C(=O)N(C)CC(=O)N[C@H](Cc3ccccc3)COc3cnc(OC)cc3C(=O)N2)c1` [Example 647, (3R,9S,13S)-3-benzyl-9-isobutyl-17-methoxy-N-(3-methoxyphenethyl)-7,10-dimethyl-5,8,11,15-tetraoxo-2,3,4,5,6,7,8,9,10,11,12,13,14,15-tetradecahydropyrido[4,3-p][1]oxa[4,7,10,14]tetraazacycloheptadecine-13-carboxamide], the EC50 worked out at 820 nM and the Emax worked out at 182%.

As to `COc1cc2c(cn1)OC[C@@H](Cc1ccccc1)NC(=O)C1(CC1)N(C)C(=O)[C@H](CC(C)C)N(C)C(=O)C[C@@H](C(=O)NCCc1cc(C3CC3)no1)NC2=O` [Example 648, (3′R,9′S,13′S)-3′-benzyl-N-(2-(3-cyclopropylisoxazol-5-yl)ethyl)-9′-isobutyl-17′-methoxy-7′,10′-dimethyl-5′,8′,11′,15′-tetraoxo-2′,3′,4′,5′,8′,9′,10′,11′,12′,13′,14′,15′-dodecahydro-7′H-spiro[cyclopropane-1,6′-pyrido[4,3-p][1]oxa[4,7,10,14]tetraazacycloheptadecine]-13′-carboxamide], the EC50 stood at 748 nM and the Emax turned out to be 159%.

In the case of `COc1cc2c(cn1)OC[C@@H](Cc1ccccc1)NC(=O)C1(CC1)N(C)C(=O)[C@H](CC(C)C)N(C)C(=O)C[C@@H](C(=O)NCCc1noc(C3CC3)n1)NC2=O` [Example 649, (3′R,9′S,13′S)-3′-benzyl-N-(2-(5-cyclopropyl-1,2,4-oxadiazol-3-yl)ethyl)-9′-isobutyl-17′-methoxy-7′,10′-dimethyl-5′,8′,11′,15′-tetraoxo-2′,3′,4′,5′,8′,9′,10′,11′,12′,13′,14′,15′-dodecahydro-7′H-spiro[cyclopropane-1,6′-pyrido[4,3-p][1]oxa[4,7,10,14]tetraazacycloheptadecine]-13′-carboxamide], the EC50 is 908 nM and the Emax was determined as 149%.

Take `COc1cccc(CCNC(=O)[C@@H]2CC(=O)N(C)[C@@H](CC(C)C)C(=O)N(C)C3(CC3)C(=O)N[C@H](Cc3ccccc3)COc3cnc(OC)cc3C(=O)N2)c1` [Example 650, (3′R,9′S,13′S)-3′-benzyl-9′-isobutyl-17′-methoxy-N-(3-methoxyphenethyl)-7′,10′-dimethyl-5′,8′,11′,15′-tetraoxo-2′,3′,4′,5′,8′,9′,10′,11′,12′,13′,14′,15′-dodecahydro-7′H-spiro[cyclopropane-1,6′-pyrido[4,3-p][1]oxa[4,7,10,14]tetraazacycloheptadecine]-13′-carboxamide]: the EC50 was determined as 596 nM and the Emax was 214%.

In the case of `CC(C)C[C@H]1C(=O)N2CCCC[C@@H]2C(=O)N[C@H](Cc2ccccc2)COc2cccc(F)c2C(=O)N[C@H](C(=O)NCCc2ccc(-n3nccn3)cc2)CC(=O)N1C` [Example 651, (7S,11S,20R,22aR)-N-(4-(2H-1,2,3-triazol-2-yl)phenethyl)-20-benzyl-14-fluoro-7-isobutyl-8-methyl-6,9,13,22-tetraoxo-1,3,4,6,7,8,9,10,11,12,13,19,20,21,22,22a-hexadecahydro-2H-benzo[p]pyrido[2,1-f][1]oxa[4,7,10,14]tetraazacycloheptadecine-11-carboxamide], the EC50 amounted to 375 nM and the Emax came out at 127%.

Take `[2H]C1([2H])Oc2ccc3c(c2O1)C(=O)N[C@H](C(=O)NCCc1ccc(-n2nccn2)cc1)CC(=O)N(C)[C@@H](CC(C)C)C(=O)N1CCCC[C@@H]1C(=O)N[C@H](Cc1ccccc1)CO3` [Example 653, (8S,12S,18aR,21R)-N-(4-(2H-1,2,3-triazol-2-yl)phenethyl)-21-benzyl-12-isobutyl-11-methyl-6,10,13,19-tetraoxo-6,7,8,9,10,11,12,13,16,17,18,18a,19,20,21,22-hexadecahydro-15H-[1,3]dioxolo[4′,5′:5,6]benzo[1,2-p]pyrido[2,1-f][1]oxa[4,7,10,14]tetraazacycloheptadecine-4,4-d2-8-carboxamide]: the EC50 was 332 nM and the Emax was found to be 140%.

On to `Cc1cc(CCNC(=O)[C@@H]2CC(=O)N(C)[C@@H](CC(C)C)C(=O)N(C)C3(CC3)C(=O)N[C@H](Cc3ccccc3)COc3ccc4ccccc4c3C(=O)N2)on1` [Example 654, (3′S,7′S,13′R)-13′-benzyl-7′-isobutyl-6′,9′-dimethyl-N-(2-(3-methylisoxazol-5-yl)ethyl)-1′,5′,8′,11′-tetraoxo-2′,3′,4′,5′,6′,7′,8′,9′,11′,12′,13′,14′-dodecahydro-1′H-spiro[cyclopropane-1,10′-naphtho[1,2-p][1]oxa[4,7,10,14]tetraazacycloheptadecine]-3′-carboxamide], for which the EC50 was determined as 290 nM and the Emax was 330%.
